Measurements published in ChEMBL document CHEMBL4118109, “A combination of 19F NMR and surface plasmon resonance for site-specific hit selection and validation of fragment molecules that bind to the ATP-binding site of a kinase” (Bioorg Med Chem, 2018).
The source made the active and inactive calls. No cut-off for these calls is given here.

Key:
[1] = target: T1, Mitogen-activated protein kinase 1 (Homo sapiens, UniProt P28482); test: Binding affinity to ATP-binding site of ERK2 (unknown origin) assessed as reduction in signal intensity by 19F NMR spectroscopy; set-up: concentration or dose not given beside the values
[2] = target: T1, Mitogen-activated protein kinase 1; test: Binding affinity to ATP-binding site of ERK2 (unknown origin) assessed as reduction in signal intensity in absence of competitor by 19F NMR spectroscopy; set-up: concentration or dose not given beside the values
[3] = target: T1, Mitogen-activated protein kinase 1; test: Binding affinity to ATP-binding site of ERK2 (unknown origin) assessed as reduction in signal intensity in presence of […] by competitive 19F NMR spectroscopy; set-up: concentration or dose not given beside the values
[4] = target: T1, Mitogen-activated protein kinase 1; test: Binding affinity to ATP-binding site of ERK2 (unknown origin) assessed as reduction in signal intensity in presence of L100919 by competitive 19F NMR spectroscopy; set-up: concentration or dose not given beside the values
[5] = target: T1, Mitogen-activated protein kinase 1; test: Binding affinity to ATP-binding site of ERK2 (unknown origin) assessed as reduction in signal intensity in presence of FR180204 at 1 mM by competitive surface plasmon resonance method; set-up: scale not given: the % may be the effect or the level left
[6] = target: T1, Mitogen-activated protein kinase 1; test: Binding affinity to ATP-binding site of ERK2 (unknown origin) by surface plasmon resonance method
[7] = target: T1, Mitogen-activated protein kinase 1; test: Binding affinity to ATP-binding site of ERK2 (unknown origin) by isothermal titration calorimetry
[8] = target: T1, Mitogen-activated protein kinase 1; test: Binding affinity to ATP-binding site of ERK2 (unknown origin) assessed as reduction in signal intensity in presence of L100919 at 1 mM by competitive surface plasmon resonance method; set-up: scale not given: the % may be the effect or the level left

T1 sequence (P28482 whole entry): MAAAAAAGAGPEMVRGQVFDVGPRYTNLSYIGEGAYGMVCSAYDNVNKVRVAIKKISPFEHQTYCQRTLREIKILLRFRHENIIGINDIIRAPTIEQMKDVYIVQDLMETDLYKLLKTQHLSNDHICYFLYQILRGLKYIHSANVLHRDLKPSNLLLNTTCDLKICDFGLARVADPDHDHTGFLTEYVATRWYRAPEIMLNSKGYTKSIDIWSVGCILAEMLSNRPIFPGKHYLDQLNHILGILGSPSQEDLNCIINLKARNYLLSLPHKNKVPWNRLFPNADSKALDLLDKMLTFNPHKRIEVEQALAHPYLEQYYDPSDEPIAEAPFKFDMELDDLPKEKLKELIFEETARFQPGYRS

Activity [1] | Activity [2] [%] | Activity [3] [%] | Activity [4] [%] | Activity [5] [%] | Kd [6] [mM] | Kd [7] [µM] | Activity [8] [%] | SMILES
36% | 24 | 22 | 23 | 25 | > 1 | – | – | Fc1ccc2c(CC3CCOCC3)c[nH]c2c1
28% | 30 | 19 | 20 | – | 0.929 | 410 | – | Fc1ccc2[nH]cc(CC3CCOCC3)c2c1
39% | 10 | – | – | – | > 1 | – | – | NC1CCN(c2cccc(F)c2[N+](=O)[O-])CC1
29% | 20 | 14 | 16 | – | – | – | – | Fc1cccc2c1CC1(CCOCC1)CN2
47% | 35 | 17 | 24 | 14 | > 1 | – | 12 | O=C(O)c1ccc2nc(-c3ccccc3F)nn2c1
26% | 9 | – | – | – | > 1 | – | – | CC(C)(C)OC(=O)N1CCC(CN)(Cc2cccc(C(F)(F)F)c2)CC1
32% | 0 | – | – | – | – | – | – | CC(C)(C)OC(=O)N1CCC(CN)(Cc2ccc(C(F)(F)F)cc2)CC1
29% | 15 | 10 | 14 | – | – | – | – | COCCCNc1ccc(F)cc1[N+](=O)[O-]
41% | 9 | – | – | 15 | 0.495 | – | 12 | N[C@H]1CC[C@H](N2Cc3c(F)cccc3C2=O)CC1
26% | 30 | 23 | 25 | – | > 1 | – | – | CC(C)(C)OC(=O)N1CCC(Cc2cccc(C(F)(F)F)c2)(C(=O)O)CC1
inactive | – | – | – | – | – | – | – | N[C@H]1CC[C@H](N2Cc3cc(F)ccc3C2=O)CC1
11% | 9 | – | – | 20 | 0.989 | – | – | FC(F)(F)c1ccnc(NC2CCNCC2)c1
inactive | – | – | – | – | – | – | – | NCc1cn(Cc2ccccc2F)cn1
33% | 22 | -4 | 5 | – | – | – | – | FC(F)(F)c1cnn2cc(Br)cnc12
13% | 7 | – | – | – | > 1 | – | – | O=C1c2ccc(F)cc2CN1C1CCNCC1
14% | 16 | 10 | 14 | – | > 1 | – | 10 | Fc1ccc2[nH]cc(C3CCOCC3)c2c1
54% | 49 | 16 | 20 | 12 | > 1 | – | – | Fc1cccc(-c2nnc3ccc(Br)cn23)c1
66% | 67 | 2 | 8 | – | > 1 | – | – | O=C1c2ccc(F)cc2CN1[C@H]1CCCNC1
39% | 45 | 13 | 15 | – | – | – | – | CC(C)(C)OC(=O)N1CCC2(CC1)C(=O)Nc1ccc(F)cc12
inactive | – | – | – | – | > 1 | – | – | NCc1cn(Cc2ccccc2C(F)(F)F)cn1
31% | 17 | 7 | 12 | 10 | – | – | 17 | Nc1c(F)cccc1N1CCCCC1
– | – | – | – | – | > 1 | – | 17 | CCOc1cc(N)cc(C(F)(F)F)c1
32% | 22 | -1 | 8 | 31 | > 1 | – | 26 | O=C1c2cccc(F)c2CN1[C@H]1CCCNC1
40% | 26 | 7 | 5 | 14 | > 1 | – | – | Nc1cnc(Nc2ccc(C(F)(F)F)cc2)nc1
43% | 26 | 15 | 24 | – | > 1 | – | – | Nc1ccc2nc(-c3ccc(F)cc3)nn2c1
33% | -12 | – | – | 23 | – | – | 19 | Nc1cnc2c(C(F)(F)F)cnn2c1
20% | 2 | – | – | – | > 1 | – | – | CC(C)(C)OC(=O)N[C@H]1CCN(c2ncccc2[N+](=O)[O-])C1

SMILES | Activity [1] | Activity [2] [%] | Activity [3] [%] | Activity [4] [%] | Activity [5] [%] | Kd [6] [mM] | Kd [7] [µM] | Activity [8] [%]
Fc1ccc2[nH]cc(C3CCCNC3)c2c1 (centres undefined) | 10% | 20 | 9 | 9 | – | > 1 | – | –
